Source: US8298781B2, “Compositions and methods for characterizing and regulating olfactory sensation” (Duke University, priority 2007, dated 2012)

What was measured:
human subjects [1] = assay: Human olfactory psychophysics: valence rating by OR7D4 genotype; assay type: in vivo; settings: for valence rating, OR7D4 RT/WM vs RT/RT subjects: 7-point scale, two concentrations pooled; for valence rating, RT/S84N subjects vs RT/RT controls: N=7 RT/S84N; for valence rating of OR7D4 WM/WM subjects relative to solvent propylene glycol: N=10 WM/WM; for valence rating, RT/P79L subjects vs RT/RT controls: N=30 RT/P79L
Description: (§1) Human olfactory psychophysics. All human subjects gave informed consent to participate in this study and were tested in a well-ventilated room. Normal human subjects (n=412; 218 female, 194 male; median age 34, age range 19-75) were pre-screened to exclude pregnant women and those with medical conditions causing general impairment of the sense of smell. All subjects completed two replicates of the test separated by at least 4 days. Odors were presented in amber vials as previously described (see, e.g., Keller, A., et al., Nat Neurosci 7, 337-338 (2004); herein incorporated by reference in its entirety) using bar-coded symbols to ensure that subjects were blind to the identity of all odors. The intensity and valence of 66 odors at two concentrations (“high” and “low”) and two solvents was rated using a 7-point scale. Thresholds were calculated using the single staircase method with seven reversals (see, e.g., Doty, R. L., et al., Chem Senses 20, 645-656 (1995); Doty, R. L. & Laing, D. G. in Handbook of Olfaction and Gustation (ed. Doty, R. L.) pp. 203-228 (Marcel Dekker, Inc., New York, 2003); each of which are herein incorporated by reference in their entireties). Threshold tests included both steroids as binary dilutions from […] (binary dilution 6) to 1: 134,217,728 (binary dilution 27). Subjects who could not reliably distinguish a 1:64 dilution of androstenone and androstadienone from solvent were operationally defined as anosmic to these odorous steroids, although it could not be excluded that these subjects could detect higher concentrations of these steroids (see, e.g., Bremner, E. A., et al., Chem Senses 28, 423-432 (2003); herein incorporated by reference in its entirety). Odor profiling used the method established by Dravnieks, et al. (see, e.g., Dravnieks, A., et al., Science 218, 799-801 (1982); herein incorporated by reference in its entirety).
Stimuli for olfactory psychophysics. All odors were presented as one ml of an odor dilution in either propylene glycol or paraffin oil in 20 ml amber glass vials. All of these compounds were used in the intensity and valence rating portion of the smell test.
Olfactory ratings. The intensity and valence of 66 odors were rated at two different concentrations (high and low) and the intensity and valence of the two solvents (paraffin oil and propylene glycol) was rated three times. Prior to these ratings, six stimuli that represented the spectrum of intensity and valence of the stimuli used in the study were presented to allow the subjects to calibrate the usage of the scale. The subjects were unaware that the six first stimuli served that purpose. After the rating of the 66 odors at two concentrations and the rating of the solvents, 15 stimuli that were presented earlier in the experiment were repeated to test for the effect of adaptation and olfactory fatigue on the ratings. The subjects were not aware that the last 15 stimuli served this purpose. These 15 stimuli and the six first stimuli were not included in the analysis presented here. […] The 15 control stimuli and their concentrations were as follows:
In addition there was a button on the screen labeled “I can't smell anything” and a button labeled “Don't Know”. If the “Don't Know” button was pressed, no rating was recorded. If the “I can't smell anything” button was pressed, a 0 was recorded for the intensity rating and no rating was recorded for the valence rating. The other ratings were transformed according to the following scheme:
• Extremely Weak=1 • Very Weak=2 • Slightly Weak=3 • Neither Weak nor Strong=4 • Slightly Strong=5 • Very Strong=6 • Extremely Strong=7 Valence Rating • Extremely Unpleasant=1 • Very Unpleasant=2 • Slightly Unpleasant=3 • Neither Unpleasant nor Pleasant=4 • Slightly Pleasant=5 • Very Pleasant=6 • Extremely Pleasant=7
Averages for the ratings of the different genotypes were calculated. […]

human subjects [2] = assay: Human olfactory psychophysics: detection thresholds (single staircase method); assay type: in vivo; settings: for detection threshold, RT/S84N subjects vs RT/RT controls: N=3 RT/S84N; for detection threshold, RT/P79L subjects vs RT/RT subjects: N=12 RT/P79L; for detection threshold, OR7D4 RT/WM vs RT/RT subjects: binary dilutions in propylene glycol, N=49 RT/WM, N=47 RT/RT
Description: as §1
For the descriptors task, the following odors and concentrations were used: propylene glcol (pure), pentadecalactone 1/500, vanillin 1/200, and androstenone 1/10,000. The following odors were used for thresholding: adrostenone and androstadienone. These were tested at an initial concentration of binary dilution 27 […] in propylene glycol and moved from there in binary steps. The range of dilutions tested was from binary dilution 27 (1:134,217,728) to binary dilution 6 (1:64). Odor vials used for intensity and valence ratings and the assigning of descriptors to odors were used for 40 sessions and then replaced by a new set. Master stocks of each odor were established at the beginning of the study to avoid intertrial variability in odor concentrations.
Threasholding. Detection thresholds (FIG. 3c and FIG. 5b-c) were determined using the “Single Staircase Threshold Detection Method” (see, e.g., Buck, L., et al., Cell 65, 175-187 (1991); Menashe, I., et al., Nat Genet. 34, 143-144 (2003); each of which are herein incorporated by reference in their entireties). This method produced very accurate data on the threshold concentration of a given dour and was easy to administer and for the subjects to perform. The thresholds for each subject on two occasions was tested at least four days apart. This helped to control for inter-trial variability in olfactory performance. The average difference between the thresholds determined on the two days was three binary dilution steps for andmstenone and five for androstadienone.
A custom computer-controlled thresholding test was administered as a self-test to each subject. Briefly, subjects were instructed to sniff two vials, one containing the solvent, the other a dilution of the odorant. Both vials have barcode labels and the procedure was done at a computer equipped with a scanner. Subjects are asked to scan the vial with the stronger odor. Depending on their answer, the procedure was repeated at an adjusted concentration. […]

Row | Compound | valence rating, OR7D4 RT/WM vs RT/RT subjects (human subjects [1]) | valence rating, RT/S84N subjects vs RT/RT controls (human subjects [1]) | valence rating of OR7D4 WM/WM subjects relative to solvent propylene glycol (human subjects [1]) | valence rating, RT/P79L subjects vs RT/RT controls (human subjects [1]) | detection threshold, RT/S84N subjects vs RT/RT controls (human subjects [2]) | detection threshold, RT/P79L subjects vs RT/RT subjects (human subjects [2]) | detection threshold, OR7D4 RT/WM vs RT/RT subjects (human subjects [2]) | incidence of specific anosmia, OR7D4 RT/WM vs RT/RT subjects (human subjects [2]; p<0.05, chi-square test) | proportion of subjects anosmic, RT/P79L vs RT/RT subjects (human subjects [2]; p=0.018, chi-square analysis)
1 | C[C@@]12C=CC[C@H]1[C@@H]1CCC3=CC(=O)CC[C@]3(C)[C@H]1CC2 [androstadienone, androsta-4,16-dien-3-one] | more pleasant | less pleasant | more unpleasant than the solvent | more pleasant | higher | lower | higher detection thresholds |  | 
2 | C[C@]12CCC(=O)C[C@@H]1CC[C@@H]1[C@@H]2CC[C@]2(C)C=CC[C@@H]12 [androstenone, 5α-androst-16-en-3-one] | more pleasant | less pleasant | more unpleasant than the solvent | more pleasant | higher | lower | higher detection thresholds | greater incidence | lower
